# What was measured:
# [1] = in vivo metabolite study (metabolic stability, radio-HPLC of brain homogenate and plasma); design: species or system female CD-1 mice; conditions: for percentage of intact radiotracer in the brain / percentage of intact radiotracer in the plasma: female CD-1 mice, 30 min after the injection, radio-HPLC; for metabolic stability (comparison in words): in vivo, compared with another radiotracer
# Protocol: The metabolic stability of [^18F]JHU94620-D4 was determined in accordance with the method described by Moldovan et al., J. Med. Chem. 2016, 59, 7840-7855. In the same way, the metabolic stability of JHU94620 and [^18F]JHU94620 was determined. The radio-HPLC chromatograms shown in FIGS. 3 and 4 were determined using a ReproSil-Pur C18 AQ column (250×4.6 mm, […]; eluting agent: 10-90-10% MeCN/20 mM NH4OAc; flow: 1 ml/min). JHU94620 has the following formula: […]
# It is seen in FIG. 4 that in the in vivo metabolite study in female CD-1 mice the percentage of intact radiotracer [^18F]JHU94620-D4 in the brain was ~80% (radio-HPLC, extraction yield >97%) and in the plasma was ~15% (radio-HPLC, extraction yield >95%) 30 min after the injection.
# In the in vivo metabolite study in female CD-1 mice in case of JHU94620 the percentage of intact radiotracer in the brain was 36% (radio-HPLC, n=3, extraction yield 93%) and in the plasma was 7% (radio-HPLC, n=3, extraction yield 94%) of the total activity 30 min after the injection.
# CBR2 [2] = target: T1, CBR2 (Homo sapiens, UniProt P34972); test: homolog competition assay, homogenate of CHO cells stably transfected with human CBR2 receptor, radioligand [^18F]JHU94620-D8; format: binding; design: expressed in transfected cells; host or cells: CHO cells (stably transfected), used as homogenate
# T1 sequence (P34972 whole entry): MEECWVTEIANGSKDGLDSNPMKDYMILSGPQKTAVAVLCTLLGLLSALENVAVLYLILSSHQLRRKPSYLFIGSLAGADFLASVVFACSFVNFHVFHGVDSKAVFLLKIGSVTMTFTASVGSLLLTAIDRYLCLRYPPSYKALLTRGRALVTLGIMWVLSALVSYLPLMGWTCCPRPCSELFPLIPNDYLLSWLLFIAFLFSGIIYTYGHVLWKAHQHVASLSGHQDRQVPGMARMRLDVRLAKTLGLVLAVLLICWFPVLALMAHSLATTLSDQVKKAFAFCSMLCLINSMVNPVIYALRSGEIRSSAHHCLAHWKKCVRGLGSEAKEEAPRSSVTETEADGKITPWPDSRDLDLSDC
# Protocol: The equilibrium dissociation constant KD was determined by means of a homolog competition assay. For that, a constant amount of binding protein (homogenate of CHO cells that were stably transfected with human CBR2 receptor; 2 Mio. cells/mL of the batch) was incubated with a constant amount of [^18F]JHU94620-D8 (0.101 nM in the batch) and an increasing concentration of JHU94620 (0.01 nM-10 µM in the batch) for 60 minutes at room temperature in binding buffer (50 mM TRIS-HCl, pH 7.4, with 5 mM of MgCl2, 1 mM EDTA, 1% BSA). Separation of receptor-bound and free radioligand was carried out by filtration over GF/B glass fiber filter incubated with 0.3% of polyethylene imine. Quantification of receptor-bound radioligand was carried out by measuring the filter-bound radioactivity in a gamma counter. Determination of the unspecific bonding of [^18F]JHU94620-D8 was carried out by co-incubation with CP55940 (10 µM in the batch), determination of the adsorption of the radioligand at the glass fiber filter was carried out by incubation without binding protein. […] CP55940 is a synthetic cannabinoid.
# [3] = background statement on prior-art compound; cited from earlier work
# CBR2 [4] = target: T1, CBR2; test: CBR2 equilibrium dissociation constant Ki via Cheng-Prusoff equation; format: binding; conditions: n = 3; read-out: CBR2 affinity Ki
# Protocol: Using the Cheng-Prusoff equation
# the CBR2 equilibrium dissociation constant Ki of JHU94620 was determined. Here, L designates the concentration of the free ligand. […] Replacing hydrogen atoms by […] shall not have any influence on the Ki value. This also applies to the replacement of hydrogen atoms by tritium ions.
Compound,percentage of intact radiotracer in the brain [1],percentage of intact radiotracer in the plasma [1],metabolic stability (comparison in words) [1],"Kd (CBR2 [2]; calculated as KD = IC50 - radioligand (simplified Cheng-Prusoff), read-out: equilibrium dissociation constant KD) [nM]",metabolic stability (prior art statement) [3],Ki (CBR2 [4]) [nM],"IC50 (CBR2 [2]; competition of JHU94620 (0.01 nM-10 µM) with 0.101 nM [^18F]JHU94620-D8, 60 minutes, room temperature) [nM]"
"[2H]C([2H])([18F])CCC([2H])([2H])n1c(C)c(C)s/c1=N\C(=O)C1C(C)(C)C1(C)C [[^18F]JHU94620-D4, N-(3-(4-([^18F]fluoro)butyl-1,1,4,4-d4)-4,5-dimethylthiazole-2(3H)-ylidene)-2,2,3,3-tetramethylcyclopropane-1-carboxamide]",~ 80%,~ 15%,substantially higher metabolic stability than [^18F]JHU94620,–,–,–,–
"[2H]C([2H])([18F])C([2H])([2H])C([2H])([2H])C([2H])([2H])n1c(C)c(C)s/c1=N\C(=O)C1C(C)(C)C1(C)C [[^18F]JHU94620-D8, N-(3-(4-([^18F]fluoro)butyl-1,1,2,2,3,3,4,4-ds)-4,5-dimethylthiazole-2(3H)-ylidene)-2,2,3,3-tetramethylcyclopropane-1-carboxamide]",–,–,highly similar to that of [^18F]JHU94620-D4,2.72,–,–,–
"Cc1s/c(=N\C(=O)C2C(C)(C)C2(C)C)n(CCCC[18F])c1C [[^18F]JHU94620, N-(3-(4-([^18F]fluoro)butyl)-4,5-dimethylthiazole-2(3H)-ylidene)-2,2,3,3-tetramethylcyclopropane-1-carboxamide]",38%,–,–,–,low metabolic stability,–,–
Cc1s/c(=N\C(=O)C2C(C)(C)C2(C)C)n(CCCCF)c1C [JHU94620],36%,7%,–,–,–,0.4,2.82

# — patent US20230312493A1, “DEUTERATED AND TRITIATED N-(4,5-DIMETHYLTHIAZOLO-2(3H)-YLIDEN)-2,2,3,3-TETRAMETHYLCYCLOPROPANE-1-CARBOXAMIDE DERIVATIVES AND THE USE THEREOF” (HELMHOLTZ-ZENTRUM DRESDEN-ROSSENDORF E.V., priority 2020, published 2023)
